The values below are quoted from earlier work in patent US20130224294A1, “DRY PROCESSING OF ATAZANAVIR” (priority 2010, published 2013).

The structures appear in SMILES notation.

By solubility is commonly meant how much of the substance goes into solution per volume.

The conditions of data set [1]: free base.
For data set [2] the following is noted: at 24±3° C.; base formed by dissociation of the salt in the presence of water.

Take `COC(=O)N[C@H](C(=O)N[C@@H](Cc1ccccc1)[C@@H](O)CN(Cc1ccc(-c2ccccn2)cc1)NC(=O)[C@@H](NC(=O)OC)C(C)(C)C)C(C)(C)C` [Atazanavir]: the “BCS class (high permeability/low solubility)” value is “BCS II”. Besides, in data set [1], the bioavailability result is “does not have sufficient bioavailability”. Also, the solubility in data set [2] is below 1 µg/mL.
